Laboratory results taken from PubChem BioAssay AID248 (DTP/NCI, 2004).
Toxic doses and inconclusive results are not listed. Cut-off read from the data, not from the text of the source: active = T/C of 150% or more; inactive = T/C below 125%.

System: L1210 leukemia ip in BDF1 mice, survival T/C
Assay: NCI In Vivo Anticancer Drug Screen. Data for tumor model L1210 Leukemia (intraperitoneal) in B6D2F1 (BDF1) mice
Conditions: endpoint: mean survival time, higher = longer survival
Summary of the method: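 Value reflects the ratio of survival in compound-treated mice to survival in vehicle-treated controls, with both groups carrying the same transplanted tumor.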

[1] = dose: 100.0 mg/kg/injection, schedule: Q01DX009 (ip), vehicle: Klucel (hydroxypropylcellulose) (HPC)
[2] = dose: 200.0 mg/kg/injection, schedule: Q01DX009 (ip), vehicle: Klucel (hydroxypropylcellulose) (HPC)
[3] = dose: 400.0 mg/kg/injection, schedule: Q01DX009 (ip), vehicle: Klucel (hydroxypropylcellulose) (HPC)
[4] = dose: 100.0 mg/kg/injection, schedule: Q01DX009 (ip), vehicle: saline
[5] = dose: 200.0 mg/kg/injection, schedule: Q01DX009 (ip), vehicle: saline
[6] = dose: 100.0 mg/kg/injection, schedule: Q01DX001 (ip), vehicle: saline
[7] = dose: 200.0 mg/kg/injection, schedule: Q01DX001 (ip), vehicle: saline
[8] = dose: 400.0 mg/kg/injection, schedule: Q01DX001 (ip), vehicle: saline
[9] = dose: 100.0 mg/kg/injection, schedule: Q04DX003 (ip), vehicle: Klucel (hydroxypropylcellulose) (HPC)
[10] = dose: 200.0 mg/kg/injection, schedule: Q04DX003 (ip), vehicle: Klucel (hydroxypropylcellulose) (HPC)

Measured: T/C

NC1C(O)C(O)C(Nc2ncnc3nc[nH]c23)OC1C(O)CO (configuration not stated)
inactive: dose: 0.44 mg/kg/injection, schedule: Q## X000 (ip), vehicle: carboxymethylcellulose (CMC) 98 % of control | dose: 0.66 mg/kg/injection, schedule: Q## X000 (ip), vehicle: carboxymethylcellulose (CMC) 100 % of control | dose: 1.0 mg/kg/injection, schedule: Q## X000 (ip), vehicle: carboxymethylcellulose (CMC) 100 % of control | dose: 1.5 mg/kg/injection, schedule: Q01DX009 (ip), vehicle: saline 104 % of control | dose: 1.5 mg/kg/injection, schedule: Q## X000 (ip), vehicle: carboxymethylcellulose (CMC) 100 % of control | dose: 3.0 mg/kg/injection, schedule: Q01DX001 (ip), vehicle: saline 107 % of control | dose: 3.0 mg/kg/injection, schedule: Q01DX009 (ip), vehicle: saline 103 % of control | dose: 6.0 mg/kg/injection, schedule: Q01DX001 (ip), vehicle: saline 107 % of control | dose: 6.0 mg/kg/injection, schedule: Q01DX009 (ip), vehicle: saline 101 % of control | dose: 12.0 mg/kg/injection, schedule: Q01DX001 (ip), vehicle: saline 107 % of control | dose: 12.0 mg/kg/injection, schedule: Q01DX009 (ip), vehicle: saline 98 % of control | dose: 24.0 mg/kg/injection, schedule: Q01DX001 (ip), vehicle: saline 104 % of control | dose: 24.0 mg/kg/injection, schedule: Q01DX009 (ip), vehicle: saline 101 % of control | dose: 35.0 mg/kg/injection, schedule: Q01DX009 (ip), vehicle: saline 95 % of control | dose: 48.0 mg/kg/injection, schedule: Q01DX001 (ip), vehicle: saline 103 % of control | dose: 55.0 mg/kg/injection, schedule: Q01DX009 (ip), vehicle: saline 97 % of control | dose: 75.0 mg/kg/injection, schedule: Q01DX001 (ip), vehicle: saline 96 % of control | dose: 80.0 mg/kg/injection, schedule: Q01DX009 (ip), vehicle: saline 97 % of control | dose: 110.0 mg/kg/injection, schedule: Q01DX001 (ip), vehicle: saline 98 % of control | dose: 165.0 mg/kg/injection, schedule: Q01DX001 (ip), vehicle: saline 101 % of control | dose: 245.0 mg/kg/injection, schedule: Q01DX001 (ip), vehicle: saline 95 % of control | dose: 370.0 mg/kg/injection, schedule: Q01DX001 (ip), vehicle: saline 103 % of control

O=C1c2cscc2C(=O)c2sccc21
inactive: dose: 100.0 mg/kg/injection, schedule: Q01DX001 (ip), vehicle: saline with Tween-80 100 % of control | dose: 200.0 mg/kg/injection, schedule: Q01DX001 (ip), vehicle: saline with Tween-80 102 % of control | dose: 400.0 mg/kg/injection, schedule: Q01DX001 (ip), vehicle: saline with Tween-80 96 % of control

CCOC(=O)C(CC(C)C)NC(=O)C(N)Cc1ccc(N(CCCl)CCCl)cc1 (configuration not stated)
inactive: dose: 2.5 mg/kg/injection, schedule: Q01DX009 (ip), vehicle: water 116 % of control

COc1cc(NC(=O)c2ccc(Cl)cc2Cl)c(OC)cc1Cl
inactive: dose: 50.0 mg/kg/injection, schedule: Q01DX009 (ip), vehicle: saline with Tween-80 90 % of control | dose: 100.0 mg/kg/injection, schedule: Q01DX009 (ip), vehicle: saline with Tween-80 90 % of control | dose: 200.0 mg/kg/injection, schedule: Q01DX009 (ip), vehicle: saline with Tween-80 96 % of control

CN(Cc1ccccc1)C(=O)Nc1ccc(Cl)c(Cl)c1
inactive: [1] 97 % of control | [2] 110 % of control | [3] 101 % of control

CCc1ccccc1NC(=O)Nc1ccc(C(=O)O)c(O)c1
inactive: [1] 95 % of control | dose: 100.0 mg/kg/injection, schedule: Q04DX002 (ip), vehicle: Klucel (hydroxypropylcellulose) (HPC) 98 % of control | [2] 101 % of control | dose: 200.0 mg/kg/injection, schedule: Q04DX002 (ip), vehicle: Klucel (hydroxypropylcellulose) (HPC) 102 % of control | [3] 108 % of control | dose: 400.0 mg/kg/injection, schedule: Q04DX002 (ip), vehicle: Klucel (hydroxypropylcellulose) (HPC) 102 % of control

O=C(/C=C/c1cccc([N+](=O)[O-])c1)c1cccc([N+](=O)[O-])c1
inactive: dose: 12.5 mg/kg/injection, schedule: Q01DX009 (ip), vehicle: Klucel (hydroxypropylcellulose) (HPC) 94 % of control | dose: 25.0 mg/kg/injection, schedule: Q01DX009 (ip), vehicle: Klucel (hydroxypropylcellulose) (HPC) 92 % of control | dose: 25.0 mg/kg/injection, schedule: Q04DX003 (ip), vehicle: Klucel (hydroxypropylcellulose) (HPC) 94 % of control | dose: 50.0 mg/kg/injection, schedule: Q01DX009 (ip), vehicle: Klucel (hydroxypropylcellulose) (HPC) 87 % of control | dose: 50.0 mg/kg/injection, schedule: Q04DX003 (ip), vehicle: Klucel (hydroxypropylcellulose) (HPC) 103 % of control

COc1ccc(OC=O)cc1OC
inactive: dose: 50.0 mg/kg/injection, schedule: Q01DX009 (ip), vehicle: saline 98 % of control | [4] 102 % of control | dose: 100.0 mg/kg/injection, schedule: Q04DX003 (ip), vehicle: acetone 97 % of control | [5] 101 % of control | dose: 200.0 mg/kg/injection, schedule: Q04DX003 (ip), vehicle: acetone 107 % of control

Cc1cc(C)c(O)c(CN(Cc2cc(C)cc(C)c2O)C2CCCCC2)c1
inactive: [6] 96 % of control | [7] 88 % of control | [8] 88 % of control

CC1C(C)(C)C1(Cl)Cl (configuration not stated)
inactive: dose: 50.0 mg/kg/injection, schedule: Q01DX009 (ip), vehicle: saline sonified 92 % of control | dose: 100.0 mg/kg/injection, schedule: Q01DX009 (ip), vehicle: saline sonified 92 % of control | dose: 200.0 mg/kg/injection, schedule: Q01DX009 (ip), vehicle: saline sonified 101 % of control

CC(C)NS(=O)(=O)c1ccc(Cl)cc1
inactive: [9] 100 % of control | [10] 102 % of control

O=S(=O)(c1ccc(Cl)cc1)N1CCN(S(=O)(=O)c2ccc(Cl)cc2)C1
inactive: [4] 97 % of control | dose: 100.0 mg/kg/injection, schedule: Q04DX003 (ip), vehicle: saline 95 % of control | [5] 94 % of control | dose: 200.0 mg/kg/injection, schedule: Q04DX003 (ip), vehicle: saline 92 % of control | dose: 400.0 mg/kg/injection, schedule: Q01DX009 (ip), vehicle: saline 92 % of control | dose: 400.0 mg/kg/injection, schedule: Q04DX003 (ip), vehicle: saline 103 % of control

O=C(O)CCBr
inactive: [6] 93 % of control | [7] 104 % of control

Cc1cn(C2CC(OS(C)(=O)=O)C(CO)O2)c(=O)[nH]c1=O (configuration not stated)
inactive: dose: 100.0 mg/kg/injection, schedule: Q01DX005 (ip), vehicle: saline 102 % of control | dose: 200.0 mg/kg/injection, schedule: Q01DX005 (ip), vehicle: saline 104 % of control

c1ccc(C(N2CCCCC2)N2CCCCC2)cc1
inactive: [9] 106 % of control | [10] 103 % of control

CCOP(=O)(OCC)C1=C(CC)CC1
inactive: dose: 9.5 mg/kg/injection, schedule: Q01DX001 (ip), vehicle: other 109 % of control | dose: 19.0 mg/kg/injection, schedule: Q01DX001 (ip), vehicle: other 111 % of control | dose: 38.0 mg/kg/injection, schedule: Q01DX001 (ip), vehicle: other 106 % of control

CN=C(N)c1ccc(N=C(N)c2ccc(C(N)=Nc3ccc(C(N)=NC)cc3)c(Cl)c2)cc1
inactive: dose: 7.5 mg/kg/injection, schedule: Q01DX Z (oral), vehicle: saline 101 % of control | dose: 15.0 mg/kg/injection, schedule: Q01DX Z (oral), vehicle: saline 98 % of control | dose: 30.0 mg/kg/injection, schedule: Q01DX Z (oral), vehicle: saline 101 % of control | dose: 60.0 mg/kg/injection, schedule: Q01DX Z (oral), vehicle: saline 101 % of control

N#CCC(=O)N/N=C/c1ccccc1
inactive: dose: 100.0 mg/kg/injection, schedule: Q04DX002 (ip), vehicle: saline with Tween-80 97 % of control | dose: 200.0 mg/kg/injection, schedule: Q04DX002 (ip), vehicle: saline with Tween-80 101 % of control | dose: 400.0 mg/kg/injection, schedule: Q04DX002 (ip), vehicle: saline with Tween-80 101 % of control

CNC(=O)NC(C)(C)CCCCC(C)(C)NC(=O)NC
inactive: dose: 50.0 mg/kg/injection, schedule: Q01DX001 (ip), vehicle: saline 104 % of control | [6] 102 % of control | [7] 93 % of control | [8] 96 % of control
